Experimental data published in article PMC5938755 (Biochemistry, 2018).

Target: phosphotriesterase from Sphingobium sp. TCM1 (Sb-PTE) (Sphingobium sp. TCM1, UniProt A0A077JBW9)
Experiment: steady-state kinetics, release of p-nitrophenol
Type: biochemical
Settings: 50 mM HEPES/K+, pH 8.5, 30 °C; only aryl ester hydrolysis followed

| Compound | Km |
| --- | --- |
| COP(=O)(OC)Oc1ccc([N+](=O)[O-])cc1 [compound 3, dimethyl p-nitrophenyl phosphate] | 760 ± 50 µM |
| CCOP(=O)(OCC)Oc1ccc([N+](=O)[O-])cc1 [compound 11, paraoxon] | 83 ± 9 µM |
